# Experimental data from US12459951B2, “Compounds that interact with RAS superfamily proteins for treatment of cancers, inflammatory diseases, rasopathies, and fibrotic disease” (SHY Therapeutics, LLC, priority 2022, dated 2025).
# Columns and labels:
# [1] = test system: IL6; assay: IL-6 Quantification Assay (ELISA), LPS-stimulated RAW 264.7; type: cell-based; set-up: inhibition: dose or concentration left out as unconfirmed; details: Mus musculus, RAW264.7; read-out: IL-6: % inh.
# [2] = test system: Akt phosphorylation; assay: Akt Phosphorylation Assay (western blot), Panc-1; type: cell-based, human; details: at 10 μM, * = activation
# Method in brief: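 Panc-1 (KRas G12D) cells were treated with compound at 10 μM final (0.3% DMSO) for 6 h at 37 °C, or with serial dilutions for IC50. Cells were either serum-starved overnight in 0.5% FBS and then stimulated with 1.5 ng/ml EGF for 15 min, or kept in 10% FBS without stimulation. Akt Ser473 phosphorylation in lysates was read by western blot.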
# [3] = test system: TNF-alpha; assay: TNF-alpha Quantification Assay (ELISA), LPS-stimulated RAW 264.7; type: cell-based; details: Mus musculus, RAW264.7; at 10 μM; read-out: TNFα: % inh.
# [4] = test system: KRas G12D mutant; assay: Ras GTP Binding Domain Inhibition Assay (Ras Superfamily Assay); details: for KRas G12D mutant + SOS: % inh.: with SOS; for KRas G12D mutant: % inh.: without SOS
# Method in brief: (§1)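 His-tagged GTPases immobilised on nickel-coated plates, pre-incubated with compound (20 μM single point, or serial dilution for IC50) 3 h at room temperature, with or without 10-30 μg/mL Sos (residues 556-1049) in the final hour. Bound Cy3- or Cy5-GTP (100 nM, 45 min) measured by fluorescence after washing.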
# [5] = test system: KRas wild type; assay: as above; details: for KRas wild type + SOS: % inh.: with SOS; for KRas wild type: % inh.: without SOS
# Method in brief: as §1
# [6] = biological target: T1, Rac-1 (Homo sapiens, UniProt P63000); assay: as above; details: read-out: Rac-1: % inh.
# T1 construct: made in house
# Method in brief: as §1
SMILES,inhibition [1] [%],% inh of Akt phosphorylation in Panc-1 [2],inhibition at 10 µM [3] [%],KRas G12D mutant + SOS: % inh. ([4]; at 20 μM),KRas G12D mutant: % inh. ([4]; at 20 μM),KRas wild type + SOS: % inh. ([5]; at 20 μM),KRas wild type: % inh. ([5]; at 20 μM),inhibition at 20 µM [6] [%],KRas G12D mutant + SOS: % inh. ([4]; 20 μM compound),KRas G12D mutant: % inh. ([4]; 20 μM compound),KRas wild type + SOS: % inh. ([5]; 20 μM compound),KRas wild type: % inh. ([5]; 20 μM compound)
"CO[C@H]1CC[C@H](Nc2nc(-c3nccn3C)nn3cc(-c4cccnc4)c(-c4ccccc4)c23)C1 (racemic) [Compound 194, rac N-((1S,3S)-3-Methoxycyclopentyl)-2-(1-methyl-1H-imidazol-2-yl)-5-phenyl-6-(pyridin-3-yl)pyrrolo[2,1-f][1,2,4]triazin-4-amine]",75 to 100,D* (85-100% activation),50 to 74,A (A = 1-25% inhibition),A (A = 1-25% inhibition),0 (0 = 0% inhibition),A (A = 1-25% inhibition),1 to 25,–,–,–,–
"COCC1CCN(c2nc(-c3ccccn3)nn3cc(-c4ccn(C(C)C)n4)c(C)c23)C1 (racemic) [Compound 10, rac 6-(1-Isopropyl-1H-pyrazol-3-yl)-4-(3-(methoxymethyl)pyrrolidin-1-yl)-5-methyl-2-(pyridin-2-yl)pyrrolo[2,1-f][1,2,4]triazine]",25 to 49,0 (0% inhibition),0,–,–,–,–,1 to 25,0 (0 = 0% inhibition),A (A = 1-25% inhibition),0 (0 = 0% inhibition),A (A = 1-25% inhibition)
"CO[C@H]1C[C@H](Nc2nc(-c3nccn3C)nn3cc(-c4cccc(CN)c4)c(-c4ccccc4)c23)C1 [Compound 204, 6-(3-(aminomethyl)phenyl)-N-((1r,3r)-3-methoxycyclobutyl)-2-(1-methyl-1H-imidazol-2-yl)-5-phenylpyrrolo[2,1-f][1,2,4]triazin-4-amine]",75 to 100,C* (46-84% activation),25 to 49,A (A = 1-25% inhibition),A (A = 1-25% inhibition),A (A = 1-25% inhibition),A (A = 1-25% inhibition),1 to 25,–,–,–,–
"COc1ccnc(Nc2nc(-c3nccn3C)nn3cc(-c4ccn(C)n4)c(C(=O)N4CCCC4)c23)c1 [Compound 178, (4-((4-Methoxypyridin-2-yl)amino)-2-(1-methyl-1H-imidazol-2-yl)-6-(1-methyl-1H-pyrazol-3-yl)pyrrolo[2,1-f][1,2,4]triazin-5-yl)(pyrrolidin-1-yl)methanone]",50 to 74,D* (85-100% activation),0,–,–,–,–,76 to 100,D (D = 76-100% inhibition),D (D = 76-100% inhibition),D (D = 76-100% inhibition),D (D = 76-100% inhibition)
"Cc1c(-c2ccn(C)n2)cn2nc(-c3nccn3C)nc(O)c12 [Compound 172, 5-Methyl-2-(1-methyl-1H-imidazol-2-yl)-6-(1-methyl-1H-pyrazol-3-yl)pyrrolo[2,1-f][1,2,4]triazin-4-ol]",1 to 24,B* (26-49% activation),0,–,–,–,–,26 to 49,B (B = 26-49% inhibition),B (B = 26-49% inhibition),B (B = 26-49% inhibition),B (B = 26-49% inhibition)
"CO[C@H]1CC[C@H](Nc2nc(-c3nccn3C)nn3cc(-c4ccn(C)n4)c(C(=O)NCC(F)(F)F)c23)C1 (racemic) [Compound 181, 4-(((1S,3S)-3-Methoxycyclopentyl)amino)-2-(1-methyl-1H-imidazol-2-yl)-6-(1-methyl-1H-pyrazol-3-yl)-N-(2,2,2-trifluoroethyl)pyrrolo[2,1-f][1,2,4]triazine-5-carboxamide]",50 to 74,B* (26-49% activation),1 to 24,–,–,–,–,1 to 25,0 (0 = 0% inhibition),A (A = 1-25% inhibition),A (A = 1-25% inhibition),A (A = 1-25% inhibition)
"CO[C@H]1CC[C@@H](Nc2nc(-c3nccn3C)nn3cc(-c4cccnc4)c(-c4ccccc4)c23)C1 (racemic) [Compound 193, rac N-((1R,3S)-3-Methoxycyclopentyl)-2-(1-methyl-1H-imidazol-2-yl)-5-phenyl-6-(pyridin-3-yl)pyrrolo[2,1-f][1,2,4]triazin-4-amine]",75 to 100,D* (85-100% activation),25 to 49,A (A = 1-25% inhibition),A (A = 1-25% inhibition),A (A = 1-25% inhibition),A (A = 1-25% inhibition),1 to 25,–,–,–,–
"Cc1c(-c2ccn(C)n2)cn2nc(-c3nccn3C)nc(Nc3ccc(-n4ccnc4C)cn3)c12 [Compound 243, 5-Methyl-N-(5-(2-methyl-1H-imidazol-1-yl)pyridin-2-yl)-2-(1-methyl-1H-imidazol-2-yl)-6-(1-methyl-1H-pyrazol-3-yl)pyrrolo[2,1-f][1,2,4]triazin-4-amine]",0,D* (85-100% activation),0,D (D = 76-100% inhibition),D (D = 76-100% inhibition),D (D = 76-100% inhibition),D (D = 76-100% inhibition),76 to 100,–,–,–,–
"COCCNC(=O)c1c(-c2ccn(C)n2)cn2nc(-c3nccn3C)nc(Nc3cc(OC)ccn3)c12 [Compound 176, N-(2-Methoxyethyl)-4-((4-methoxypyridin-2-yl)amino)-2-(1-methyl-1H-imidazol-2-yl)-6-(1-methyl-1H-pyrazol-3-yl)pyrrolo[2,1-f][1,2,4]triazine-5-carboxamide]",75 to 100,D* (85-100% activation),0,–,–,–,–,76 to 100,D (D = 76-100% inhibition),D (D = 76-100% inhibition),D (D = 76-100% inhibition),D (D = 76-100% inhibition)
"COc1ccnc(Nc2nc(-c3nccn3C)nn3cc(-c4ccn(C)n4)c(C(=O)N4CCOCC4)c23)c1 [Compound 179, (4-((4-Methoxypyridin-2-yl)amino)-2-(1-methyl-1H-imidazol-2-yl)-6-(1-methyl-1H-pyrazol-3-yl)pyrrolo[2,1-f][1,2,4]triazin-5-yl)(morpho-lino)methanone]",50 to 74,D* (85-100% activation),0,–,–,–,–,76 to 100,D (D = 76-100% inhibition),D (D = 76-100% inhibition),D (D = 76-100% inhibition),D (D = 76-100% inhibition)
"Cn1ccnc1-c1nc(O)c2c(-c3ccccc3)c(-c3cccnc3)cn2n1 [Compound 189, 2-(1-Methyl-1H-imidazol-2-yl)-5-phenyl-6-(pyridin-3-yl)pyrrolo[2,1-f][1,2,4]triazin-4-ol]",0,B (26-49% inhibition),1 to 24,A (A = 1-25% inhibition),A (A = 1-25% inhibition),0 (0 = 0% inhibition),0 (0 = 0% inhibition),1 to 25,–,–,–,–
